Where two headings read alike, the source gives them in different places.
What was measured:
HepG2 cells [1] = assay: MTT assay, cell viability of HepG2 cells; type: cell-based; conditions: Homo sapiens
Protocol: (§1) 8 × 10^4 cells/well were incubated in 96T wells for 24 h, and the cells were treated with a drug-containing medium for a specified time. Cells were added 20 μL 0.5% MTT (Sigma, USA) to each well, continued to incubate at 37 °C for 3.5 h, then the medium was discarded and 150 μL of DMSO was added to each well to dissolve the purple formazan. The cells were shaken for 15 min at room temperature and read at 490 nm. Cell viability (%) = ([…])/(ODcontrol − ODblank) × 100%. IC50 (half maximal inhibitory concentration) was calculated by SPSS 27.0 software.

[2] = system: Bax, cleaved caspase 3 and 8, IL-6, ARG-1, CD206, COX2 in HepG2 and RAW264.7 cell co-cultivations; assay: Western blotting and ELISA in HepG2 and RAW264.7 co-cultivation; type: cell-based
Protocol: (§2) The isolates were evaluated for their inhibitory effect on NO production in LPS-induced RAW264.7 cells. The iNOS inhibitor ([…], L-NMMA) was selected as the positive control. NO was evaluated by absorbance-based detection on nitrite accumulated in the culture medium. The levels of cytokines (IL-1β, IFN-γ, IL-10, TNF-α, and IL-6) in the cell supernatant were determined using an ELISA kit (Novus Biologicals, Centennial, CO, USA) according to the manufacturer’s instructions. The absorbance was read at OD450nm/OD540nm in SpectraMax340PC microplate spectrophotometer (Molecular Devices, San Jose, CA, USA).
(§3) Protein samples were prepared using a RIPA lysis buffer. The concentration of the protein was analyzed using nucleic acid and protein microanalyzer (Molecular Devices, San Jose, CA, USA). SDS-PAGE gel electrophoresis was performed to separate the proteins, which then were electro-transferred onto a PVDF membrane. The membranes were blocked with 5% non-fat milk for 2 h and incubated with primary antibodies and secondary antibodies. The protein bands were detected by the ECL and were exposed to the TANON gel imager (Shanghai, China). The results were analyzed by Image J 180 software.

[3] = system: iNOS, COX2, NO, IL-1β, IL-6 in LPS-stimulated RAW264.7 cells; assay: Inflammatory mediators in LPS-stimulated RAW264.7 cells (Western blot, ELISA, immunofluorescence); type: cell-based, mouse; conditions: LPS (1 μg·mL^−1)-stimulated RAW264.7, 10 and 5 μmol·L^−1, 24 h
Protocol: Mouse macrophage cell line RAW264.7 was incubated in a DMEM medium (Gibco, Carlsabad, CA, USA) supplemented with 10% fetal bovine serum (FBS, Gibco), 10,000 U/mL penicillin, and 10,000 μg/mL streptomycin. RAW264.7 cells were treated with 1 μg/mL Lipopolysaccharide (LPS, Sigma, Saint Louis, MO, USA, 12181202) to promote the polarization of macrophages towards M1 or 20 ng/mL interleukin 4 (IL-4, Beyotime, Shanghai, China) to promote the polarization of macrophages towards M2. […]
The isolates were evaluated for their inhibitory effect on NO production in LPS-induced RAW264.7 cells. […] NO was evaluated by absorbance-based detection on nitrite accumulated in the culture medium. The levels of cytokines (IL-1β, IFN-γ, IL-10, TNF-α, and IL-6) in the cell supernatant were determined using an ELISA kit (Novus Biologicals, Centennial, CO, USA) according to the manufacturer’s instructions. The absorbance was read at OD450nm/OD540nm in SpectraMax340PC microplate spectrophotometer (Molecular Devices, San Jose, CA, USA).
Protein samples were prepared using a RIPA lysis buffer. The concentration of the protein was analyzed using nucleic acid and protein microanalyzer (Molecular Devices, San Jose, CA, USA). […] The protein bands were detected by the ECL and were exposed to the TANON gel imager (Shanghai, China). The results were analyzed by Image J 180 software.

[4] = system: PKC δ and ERK in HepG2 cells; assay: Western blotting of PKC δ and ERK expression and phosphorylation in HepG2 cells; type: cell-based, human
Protocol: as §3

[5] = system: HepG2 and RAW264.7 cell co-cultivations; assay: Annexin V/PI flow cytometry, HepG2 and RAW264.7 co-cultivation; type: cell-based; conditions: 48 h, compared with the HepG2 cell group
Protocol: (§4) Cells with the relevant surface antibodies were incubated at 4 °C for 30 min without light. The stained cells were incubated with Annexin V/PI kits from BD. The experiment was conducted according to the instructions. Data were analyzed on FlowJo V10 software.

MCF-7 cells = assay: MTT assay, cell viability of MCF-7 cells; type: cell-based; conditions: Homo sapiens, MCF7, read-out: MCF-7 IC50
Protocol: as §1

[6] = system: Bax, cleaved caspase 3, cleaved caspase 8 in HepG2 cells; assay: Western blotting of apoptosis-related proteins in HepG2 cells; type: cell-based, human; conditions: 12.5 or 25 μmol·L^−1
Protocol: as §3

A549 cells = assay: MTT assay, cell viability of A549 cells; type: cell-based; conditions: Homo sapiens, A549, read-out: A549 IC50
Protocol: as §1

HepG2 cells [7] = assay: Annexin V/PI flow cytometry, apoptosis of HepG2 cells; type: cell-based, human; conditions: 12.5 μmol·L^−1 or 25 μmol·L^−1
Protocol: as §4

[8] = system: PKC δ, ERK, STAT3, STAT6, ARG-1, CD163, TGF-β, CD206 in IL-4-stimulated RAW264.7 cells; assay: M2 polarization markers in IL-4-stimulated RAW264.7 cells (Western blot, immunofluorescence); type: cell-based, mouse
Protocol: (§5) Mouse macrophage cell line RAW264.7 was incubated in a DMEM medium (Gibco, Carlsabad, CA, USA) supplemented with 10% fetal bovine serum (FBS, Gibco), 10,000 U/mL penicillin, and 10,000 μg/mL streptomycin. RAW264.7 cells were treated with 1 μg/mL Lipopolysaccharide (LPS, Sigma, Saint Louis, MO, USA, 12181202) to promote the polarization of macrophages towards M1 or 20 ng/mL interleukin 4 (IL-4, Beyotime, Shanghai, China) to promote the polarization of macrophages towards M2.
RAW264.7 cells were fixed with 500 μL/well 4% paraformaldehyde for 20 min at room temperature, washed with 1 mL/well PBS five times, then incubated with anti-iNOS, anti-COX-2, or anti-CD206 antibodies at 4 °C overnight, separately. The cells were washed with 1 mL/well PBS five times, then treated with the secondary antibody (FITC-Goat anti-rabbit IgG antibody, 1:200-fold dilution) and DPAI (100 μL/well). […] The stained images were captured under a laser scanning confocal microscope (Nikon A1 AIR MP+, Tokyo, Japan).
as §3

[9] = system: NO production in LPS-stimulated RAW264.7 cells; assay: cells; type: cell-based; conditions: Mus musculus
Protocol: as §5, §2

[10] = MTT assay, cell viability of RAW264.7 cells; type: cell-based; conditions: mouse, RAW264.7 macrophage cells; half inhibitory of RAW264.7 cells, cell survival, n = 3
Protocol: as §5, §1

[11] = system: PKC δ, ERK, and NF-κB in LPS-stimulated RAW264.7 cells; assay: Western blotting of PKC δ, ERK, NF-κB in LPS-stimulated RAW264.7 cells; type: cell-based, mouse; conditions: for level of PKC δ protein / phosphorylation of PKC δ, ERK, and NF-κB: LPS-stimulated RAW264.7, 24 h; for phosphorylation of PKC δ, ERK, and NF-κB: compared to the LPS group, BIS 150 nmol·L^−1
Protocol: as §5, §3
In order to investigate the effects of PKC activation on the effects of drug treatment, 150 nmoL/L bisindolylmaleimide (BIS) was used. BIS (Beyotime, Shanghai, China) is a potent inhibitor of PKC α/β/γ and PKC δ/ε. This agent was stored at −80 °C in DMSO and cells were pre-incubated with the inhibitor for 4 h prior to being treated with compound A.

[12] = compared with HepG2 cell group and co-cultivation group
[13] = IL-4 (20 ng/mL)-stimulated RAW264.7, 10 μmol·L^−1, 0–60 min

In the case of `COc1cccc2c1C(=O)c1c(O)c3c(c(O)c1C2=O)C[C@@](O)(C(=O)CO)C[C@@H]3O[C@H]1C[C@H](N)[C@H](O)[C@H](C)O1` [Adr, adriamycin, reference compound], the IC50 (HepG2 cells [1]; HepG2, cell viability, MTT, n = 3, read-out: HepG2 IC50) is reported as 4.37 ± 1.21 µM.
In the case of `CCCCCCCCCCCC(=O)OC12CC(C)C34C=C(C)C(OC(=O)C(C)C(C)C)C3(O)C(O)C(CO)=CC(C4=O)C1C2(C)C` (centres unmarked) [Compound A, 13-hydroxyingenol-3-(2,3-dimethylbutanoate)-13-dodecanoate], the IC50 (HepG2 cells [1]; HepG2, read-out: HepG2 IC50) is reported as 21 ± 4.53 µM, the “level of Bax, and cleaved caspase 3 and 8” value ([2]; 10 μmol·L^−1, 48 h) is reported as “significantly increase” and the COX2 expression [2, 12] is reported as “increased”. The “expression of ARG-1 and CD206” value [2, 12] was “decreased”, the “level of IL-6” value [2, 12] was “decreased” and the COX2 expression [3] was “increased”. The “expression of iNOS and production of cytokines (NO, IL-1β, IL-6)” value [3] was “decrease”, the “time of highest level of phosphorylation of PKC δ” value ([4]; treated 0, 10, 20, 40, 60 min) was 10 to 20 min and the “expression of PKC δ” value ([4]; versus control group) was “decreased”. The “phosphorylation of PKC δ (p-PKC δ) and ERK (p-ERK)” value ([4]; versus control group) was “downregulated”, the apoptosis rates [5] was “upregulated” and the IC50 (MCF-7 cells) was 27.1 ± 3.34 µM. For the same molecule, the “expression of Bax, cleaved caspase 3, and cleaved caspase 8” value [6] was “increased”, the IC50 (A549 cells) was 22 ± 5.01 µM and the “apoptosis in HepG2 cells” value (HepG2 cells [7]) was “significantly induced apoptosis”. For the same molecule, the “PKC δ and ERK activation” value [8, 13] was “promote”, the STAT6 phosphorylation [8, 13] was “inhibited” and the “activation of STAT3 and STAT6” value ([8]; IL-4-stimulated RAW264.7, co-treatment 24 h) was “inhibited”. The “expression of ARG-1, CD163, TGF-β, and CD206” value ([8]; IL-4-stimulated RAW264.7 cells) was “downregulated”, the IC50 ([9]; LPS-stimulated RAW264.7 cells, n = 3, read-out: RAW264.7 IC50 (inhibition of nitric oxide production)) was 0.57 ± 0.07 µM and the CC50 [10] was 20.3 ± 3.62 µM. The “time of highest point of phosphorylation of PKC δ, ERK, and NF-κB” value ([11]; LPS (1 μg·mL^−1)-stimulated RAW264.7, compound A 10 μmol·L^−1, 0-60 min) was 20 to 30 min, the “level of PKC δ protein” value [11] was “decreased” and the “phosphorylation of PKC δ, ERK, and NF-κB” value [11] was “significantly reduced”.
Molecule `[H]/N=C(/NC)NCCC[C@H](N)C(=O)O` [l-NMMA, NG-monnomycin-l-arginine, reference compound] has an IC50 ([9]; RAW264.7, read-out: RAW264.7 IC50 (inhibition of nitric oxide production)) of 21.8 ± 3.21 µM and a CC50 [10] of over 50 µM.
In the case of “bisindolylmaleimide [reference compound]”, the “level of PKC δ protein” value [11] is reported as “did not” and the “phosphorylation of PKC δ, ERK, and NF-κB” value [11] is reported as “significantly reduced”.

— publication PMC11432454, “An Ingenane-Type Diterpene from Euphorbia kansui Promoted Cell Apoptosis and Macrophage Polarization via the Regulation of PKC Signaling Pathways” (International Journal of Molecular Sciences, 2024)
